# Reference: ChEMBL document CHEMBL3885881, “DrugMatrix”
# Organism: Rattus norvegicus
# Test: DrugMatrix - Regimen: Daily Repeat
# Format: toxicity, organism-based, Sprague-Dawley
# Parameters: regimen Daily Repeat, gender Male, age 6-8 weeks
# Conditions: in vivo, po, 47 mg/kg, route oral GAVAGE, dose level Low, […]; for ABSOLUTE BASOPHIL / ABSOLUTE EOSINOPHIL / ABSOLUTE LYMPHOCYTE / ABSOLUTE MONOCYTE / ABSOLUTE SEGMENTED NEUTROPHIL / BASOPHIL / EOSINOPHIL / ERYTHROCYTE COUNT / HEMATOCRIT / HEMOGLOBIN / LEUKOCYTE COUNT / LYMPHOCYTE / MEAN CORPUSCULAR HEMOGLOBIN / MEAN CORPUSCULAR HEMOGLOBIN CONCENTRATION / MEAN CORPUSCULAR VOLUME / MONOCYTE / NEUTROPHIL / NUCLEATED RED BLOOD CELLS / PLATELET COUNT: tissue Blood; for ALANINE AMINOTRANSFERASE / ALBUMIN / ALKALINE PHOSPHATASE / ASPARTATE AMINOTRANSFERASE / BLOOD UREA NITROGEN / CARBON DIOXIDE / CHLORIDE / CHOLESTEROL / CREATINE PHOSPHOKINASE / CREATININE / GLUCOSE / LACTATE DEHYDROGENASE / LIPASE / PHOSPHORUS / POTASSIUM / SODIUM / TOTAL BILIRUBIN / TOTAL PROTEIN / URIC ACID: tissue Plasma
smiles,measurement,setting,value
Cc1cn([C@H]2C[C@H](N=[N+]=[N-])[C@@H](CO)O2)c(=O)[nH]c1=O [ZIDOVUDINE],ABSOLUTE BASOPHIL,"72 h, time 3 day",0 CELLS/uL
same,ABSOLUTE EOSINOPHIL,"72 h, time 3 day",0 CELLS/uL
same,ABSOLUTE LYMPHOCYTE,"72 h, time 3 day",11829.67 CELLS/uL
same,ABSOLUTE MONOCYTE,"72 h, time 3 day",82 CELLS/uL
same,ABSOLUTE SEGMENTED NEUTROPHIL,"72 h, time 3 day",955 CELLS/uL
same,BASOPHIL,"72 h, time 3 day",0%
same,EOSINOPHIL,"72 h, time 3 day",0%
same,ERYTHROCYTE COUNT,"72 h, time 3 day",5.26 x10E6/uL
same,HEMATOCRIT,"72 h, time 3 day",33.23%
same,HEMOGLOBIN,"72 h, time 3 day",13.43 G/DL
same,LEUKOCYTE COUNT,"72 h, time 3 day",12.87 x10E3/uL
same,LYMPHOCYTE,"72 h, time 3 day",92%
same,MEAN CORPUSCULAR HEMOGLOBIN,"72 h, time 3 day",25.67 pg
same,MEAN CORPUSCULAR HEMOGLOBIN CONCENTRATION,"72 h, time 3 day",40.47 G/DL
same,MEAN CORPUSCULAR VOLUME,"72 h, time 3 day",63.37 fL
same,MONOCYTE,"72 h, time 3 day",0.67%
same,NEUTROPHIL,"72 h, time 3 day",7.33%
same,NUCLEATED RED BLOOD CELLS,"72 h, time 3 day",0 /100WBC
same,PLATELET COUNT,"72 h, time 3 day",1228 x10E3/uL
same,ALANINE AMINOTRANSFERASE,"72 h, time 3 day",73.67 u/L
same,ALBUMIN,"72 h, time 3 day",4.1 G/DL
same,ALKALINE PHOSPHATASE,"72 h, time 3 day",470 u/L
same,ASPARTATE AMINOTRANSFERASE,"72 h, time 3 day",86 u/L
same,BLOOD UREA NITROGEN,"72 h, time 3 day",12 mg/dL
same,CARBON DIOXIDE,"72 h, time 3 day",32.67 mmol/L
same,CHLORIDE,"72 h, time 3 day",102.33 MEQ/L
same,CHOLESTEROL,"72 h, time 3 day",68 mg/dL
same,CREATINE PHOSPHOKINASE,"72 h, time 3 day",377 u/L
same,CREATININE,"72 h, time 3 day",0.14 mg/dL
same,GLUCOSE,"72 h, time 3 day",156.33 mg/dL
same,LACTATE DEHYDROGENASE,"72 h, time 3 day",235.67 u/L
same,LIPASE,"72 h, time 3 day",11.67 u/L
same,PHOSPHORUS,"72 h, time 3 day",10.87 mg/dL
same,POTASSIUM,"72 h, time 3 day",6.46 MEQ/L
same,SODIUM,"72 h, time 3 day",141.6 MEQ/L
same,TOTAL BILIRUBIN,"72 h, time 3 day",0.17 mg/dL
same,TOTAL PROTEIN,"72 h, time 3 day",5.57 G/DL
same,URIC ACID,"72 h, time 3 day",1.57 mg/dL
same,ABSOLUTE BASOPHIL,"120 h, time 5 day",0 CELLS/uL
same,ABSOLUTE EOSINOPHIL,"120 h, time 5 day",0 CELLS/uL
same,ABSOLUTE LYMPHOCYTE,"120 h, time 5 day",15346 CELLS/uL
same,ABSOLUTE MONOCYTE,"120 h, time 5 day",401.67 CELLS/uL
same,ABSOLUTE SEGMENTED NEUTROPHIL,"120 h, time 5 day",2019 CELLS/uL
same,BASOPHIL,"120 h, time 5 day",0%
same,EOSINOPHIL,"120 h, time 5 day",0%
same,ERYTHROCYTE COUNT,"120 h, time 5 day",5.55 x10E6/uL
same,HEMATOCRIT,"120 h, time 5 day",35.13%
same,HEMOGLOBIN,"120 h, time 5 day",14.03 G/DL
same,LEUKOCYTE COUNT,"120 h, time 5 day",17.77 x10E3/uL
same,LYMPHOCYTE,"120 h, time 5 day",86%
same,MEAN CORPUSCULAR HEMOGLOBIN,"120 h, time 5 day",25.3 pg
same,MEAN CORPUSCULAR HEMOGLOBIN CONCENTRATION,"120 h, time 5 day",39.97 G/DL
same,MEAN CORPUSCULAR VOLUME,"120 h, time 5 day",63.37 fL
same,MONOCYTE,"120 h, time 5 day",2.33%
same,NEUTROPHIL,"120 h, time 5 day",11.67%
same,NUCLEATED RED BLOOD CELLS,"120 h, time 5 day",0 /100WBC
same,PLATELET COUNT,"120 h, time 5 day",1138.33 x10E3/uL
same,ALANINE AMINOTRANSFERASE,"120 h, time 5 day",62 u/L
same,ALBUMIN,"120 h, time 5 day",4.3 G/DL
same,ALKALINE PHOSPHATASE,"120 h, time 5 day",450.33 u/L
same,ASPARTATE AMINOTRANSFERASE,"120 h, time 5 day",81.67 u/L
same,BLOOD UREA NITROGEN,"120 h, time 5 day",12.33 mg/dL
same,CARBON DIOXIDE,"120 h, time 5 day",30.67 mmol/L
same,CHLORIDE,"120 h, time 5 day",101 MEQ/L
same,CHOLESTEROL,"120 h, time 5 day",72.67 mg/dL
same,CREATINE PHOSPHOKINASE,"120 h, time 5 day",317 u/L
same,CREATININE,"120 h, time 5 day",0.25 mg/dL
same,GLUCOSE,"120 h, time 5 day",162.33 mg/dL
same,LACTATE DEHYDROGENASE,"120 h, time 5 day",138 u/L
same,LIPASE,"120 h, time 5 day",11 u/L
same,PHOSPHORUS,"120 h, time 5 day",11.9 mg/dL
same,POTASSIUM,"120 h, time 5 day",6.72 MEQ/L
same,SODIUM,"120 h, time 5 day",143.47 MEQ/L
same,TOTAL BILIRUBIN,"120 h, time 5 day",0.2 mg/dL
same,TOTAL PROTEIN,"120 h, time 5 day",5.87 G/DL
same,URIC ACID,"120 h, time 5 day",1.9 mg/dL
